Values of other authors as cited in patent US8691198B2, “Environmentally benign plasticizers based on derivatives of acetone” (priority 2010, dated 2014).
Read-outs that look alike come from different tables or passages of the source.

Columns and labels:
[1] = tested on: rat
[2] = degradation through oxidation forming phosphoric acid and the corresponding alcohols

OCC1(O)COC(O)(CO)CO1 (centres unmarked) [1,3-dihydroxyacetone dimer]
LD50 (oral, rat) ([1]; oral): sixty thousand

CCCC(=O)O [Butyric acid]
LD50(rat) ([1]; left half of Table 1): 2940 mg/kg

CCCCCC(=O)O [Caproic acid]
LD50(rat) × ([1]; right half of Table 1): 3000 mg/kg

CCCCCCCC(=O)O [Caprylic acid]
LD50(rat) × ([1]; in vivo): 600 mg/kg

CC(CC(C)(C)C)CP(=O)(O)CC(C)CC(C)(C)C (centres unmarked) [Cyanex 272, Bis-(2,4,4-trimethylpentyl) phosphinic acid, reference compound]
LD50(rat) [1]: 3500 mg/kg
biodegradability [2]: biodegradable

CCCCCCC(=O)O [Heptanoic Acid]
LD50(rat) × ([1]; right half of Table 1): 7000 mg/kg

CCCCC(=O)O [Pentanoic Acid]
LD50(rat) ([1]; in vivo): 1844 mg/kg
